Columns and labels:
Type in all cases: in vivo
[1] = test system: pigeongrass or foxtail millet (Setaria sp., SETSS); experiment: Postemergence field trial #1, visual weed control in vines; conditions: 68 to 147 days after application, penoxsulam 7 and/or flazasulfuron 25 grams ai/ha
Protocol: (§1) These trials were conducted under field conditions in France. Trial sites were located in commercially grown vines of European grape (Vitis vinifera). The grapes were grown using normal cultural practices for fertilization, seeding, and maintenance to ensure good growth of the crop and the weeds. The trials were conducted using normal research methodology. Trial plots were between 2 to 4.5 meters (m) wide by 5.5 to 10 m long. All treatments were applied using a randomized complete block trial design with 3 or 4 replications per treatment. The trial sites had naturally occurring populations of weeds. The weed spectrum included, but was not limited to, black nightshade (Solanum nigrum, SOLNI), pigeongrass or foxtail millet (Setaria sp., SETSS), common lambsquarter (Chenopodium album, CHEAL), round-leaved cranesbill (Geranium rotundifolium, GERRT), common groundsel (Senecio vulgaris, SENVU), mallow (Malva L., MALSS) and common purslane (Portulaca oleracea, POROL).
(§2) Treatments consisted of tank mixes of an oil dispersion of penoxsulam and commercially available formulations of flazasulfuron (Katana herbicide, water dispersible granules) applied in water. The application volumes were between 150-325 liters per hectare (L/ha). All application were made using precision gas hand sprayers using a 2 or 3 m boom using flat fan (80° or 110°) nozzles to broadcast the treatments on the soil.
(§3) The treated plots and control plots were rated blind at various intervals after application. Ratings were based of Percent (%) Visual weed control, where 0 corresponds to no injury and 100 corresponds to complete kill.
(§4) Colby's equation was used to determine the herbicidal effects expected from the mixtures (Colby, S. R. Calculation of the synergistic and antagonistic response of herbicide combinations. Weeds 1967 15, 20-22).
(§5) The following equation was used to calculate the expected activity of mixtures containing two active ingredients, A and B: Expected=A+B−(A×B/100)
(§6) A=observed efficacy of active ingredient A at the same concentration as used in the mixture;
(§7) B=observed efficacy of active ingredient B at the same concentration as used in the mixture.

[2] = test system: common lambsquarter (Chenopodium album, CHEAL); experiment: as above; conditions: 68 to 147 days after application, penoxsulam 7 and/or flazasulfuron 25 grams ai/ha
Protocol: as §1, §2, §3, §4, §5, §6, §7

[3] = test system: black nightshade (Solanum nigrum, SOLNI); experiment: as above; conditions: France, 68 to 147 days after application, penoxsulam 7 and/or flazasulfuron 25 grams ai/ha; for SOLNI (2) Obs - percent control observed: Field trial #1, Echallat; for SOLNI (1) Obs - percent control observed: Field trial #1, Port A Binson
Protocol: as §1, §2, §3, §4, §5, §6, §7

[4] = test system: round-leaved cranesbill (Geranium rotundifolium, GERRT); experiment: Postemergence field trial #2, visual weed control in vines; conditions: 118 to 158 days after application, penoxsulam 7 and/or flazasulfuron 25 grams ai/ha
Protocol: as §1, §2, §3, §4, §5, §6, §7

mallow (Malva L., MALSS) = experiment: as above; conditions: 118 to 158 days after application, penoxsulam 7 and/or flazasulfuron 25 grams ai/ha
Protocol: as §1, §2, §3, §4, §5, §6, §7

[5] = test system: common purslane (Portulaca oleracea, POROL); experiment: as above; conditions: 118 to 158 days after application, penoxsulam 7 and/or flazasulfuron 25 grams ai/ha
Protocol: as §1, §2, §3, §4, §5, §6, §7

[6] = test system: common groundsel (Senecio vulgaris, SENVU); experiment: as above; conditions: 118 to 158 days after application, penoxsulam 7 and/or flazasulfuron 25 grams ai/ha
Protocol: as §1, §2, §3, §4, §5, §6, §7

[7] = test system: round-leaved cranesbill (Geranium rotundifolium, GERRT); experiment: Postemergence field trial #3, visual weed control in vines; conditions: 83 to 158 days after application, penoxsulam 7 and/or flazasulfuron 25 grams ai/ha
Protocol: as §1, §2, §3, §4, §5, §6, §7

[8] = test system: black nightshade (Solanum nigrum, SOLNI); experiment: as above; conditions: 83 to 158 days after application, penoxsulam 7 and/or flazasulfuron 25 grams ai/ha
Protocol: as §1, §2, §3, §4, §5, §6, §7

[9] = test system: common purslane (Portulaca oleracea, POROL); experiment: as above; conditions: 83 to 158 days after application, penoxsulam 7 and/or flazasulfuron 25 grams ai/ha
Protocol: as §1, §2, §3, §4, §5, §6, §7

[10] = test system: common groundsel (Senecio vulgaris, SENVU); experiment: as above; conditions: 83 to 158 days after application, penoxsulam 7 and/or flazasulfuron 25 grams ai/ha
Protocol: as §1, §2, §3, §4, §5, §6, §7

Row | SMILES | SETSS Obs - percent control observed [1] [%] | CHEAL Obs - percent control observed [2] [%] | SOLNI (2) Obs - percent control observed [3] [%] | SOLNI (1) Obs - percent control observed [3] [%] | GERRT Obs - percent control observed [4] [%] | MALSS Obs - percent control observed (mallow (Malva L., MALSS)) [%] | POROL Obs - percent control observed [5] [%] | SENVU Obs - percent control observed [6] [%] | GERRT Obs - percent control observed [7] [%] | SOLNI Obs - percent control observed [8] [%] | POROL Obs - percent control observed [9] [%] | SENVU Obs - percent control observed [10] [%]
1 | COc1cc(OC)nc(NC(=O)NS(=O)(=O)c2ncccc2C(F)(F)F)n1 [Flazasulfuron, 1-(4,6-dimethoxypyrimidin-2-yl)-3-(3-trifluoromethyl-2-pyridylsulfonyl)urea] | 73 | 63 | 58 | 6 | 23 | 53 | 78 | 30 | 23 | 1 | 78 | 30
2 | COc1cnc(OC)n2nc(NS(=O)(=O)c3c(OCC(F)F)cccc3C(F)(F)F)nc12 [Penoxsulam] | 1 | 0 | 17 | 1 | 13 | 20 | 0 | 3 | 13 | 70 | 0 | 3

Source: US9179679B2, “Synergistic herbicidal composition containing penoxsulam and flazasulfuron” (Dow AgroSciences LLC, priority 2010, dated 2015)
